Our source for the Kd values is patent US20250368666A1, “INDAZOLE COMPOUNDS” (TYRA BIOSCIENCES, INC., priority 2022, published 2025).

Assay [1] has as its target T1, FGFR1 (Homo sapiens, UniProt P11362).
T1 construct: made in house; host or cells: E. coli (BL21-derived), T7 phage
The experiment in a line: Kinase binding assay (kinase-tagged T7 phage, affinity beads, qPCR), Kd. The settings on record: read-out: FGFR1 (Kd nM). The method, then: (§1) Kinase-tagged T7 phage strains were prepared in an E. coli host derived from the BL21 strain. E. coli were grown to log-phase and infected with T7 phage and incubated with shaking at 32° C. until lysis. The lysates were centrifuged and filtered to remove cell debris. Streptavidin-coated magnetic beads were treated with biotinylated small molecule ligands for 30 minutes at room temperature to generate affinity resins for kinase assays. The liganded beads were blocked with excess biotin and washed with blocking buffer SeaBlock (Pierce), 1% BSA, 0.05% Tween 20, 1 mM DTT to remove unbound ligand and to reduce non-specific binding.
(§2) Test compounds were prepared as 111× stocks in 100% DMSO. Kds were determined using an 11-point 3-fold compound dilution series with three DMSO control points. […] The compounds were then diluted directly into the assays such that the final concentration of DMSO was 0.9%. All reactions performed in polypropylene 384-well plate. Each was a final volume of 0.02 ml. […] The kinase concentration in the eluates was measured by qPCR.
(§3) Binding constants were calculated with a standard dose-response curve using the Hill equation: […]
(§4) The Hill Slope was set to −1. Curves were fitted using a non-linear least square fit with the Levenberg-Marquardt algorithm.

Assay [2] concerns the target T2, FGFR3 (Homo sapiens, UniProt P22607).
T2 construct: made in house; host or cells: E. coli (BL21-derived), T7 phage
The assay is described as above. Conditions: read-out: FGFR3 (Kd nM). The method, then:
as §1, §2, §3, §4

Where [3] appears, read: kinase binding assay, 11-point 3-fold dilution series.

Read-outs that look alike come from different tables or passages of the source.

T2 sequence (P22607 23-806): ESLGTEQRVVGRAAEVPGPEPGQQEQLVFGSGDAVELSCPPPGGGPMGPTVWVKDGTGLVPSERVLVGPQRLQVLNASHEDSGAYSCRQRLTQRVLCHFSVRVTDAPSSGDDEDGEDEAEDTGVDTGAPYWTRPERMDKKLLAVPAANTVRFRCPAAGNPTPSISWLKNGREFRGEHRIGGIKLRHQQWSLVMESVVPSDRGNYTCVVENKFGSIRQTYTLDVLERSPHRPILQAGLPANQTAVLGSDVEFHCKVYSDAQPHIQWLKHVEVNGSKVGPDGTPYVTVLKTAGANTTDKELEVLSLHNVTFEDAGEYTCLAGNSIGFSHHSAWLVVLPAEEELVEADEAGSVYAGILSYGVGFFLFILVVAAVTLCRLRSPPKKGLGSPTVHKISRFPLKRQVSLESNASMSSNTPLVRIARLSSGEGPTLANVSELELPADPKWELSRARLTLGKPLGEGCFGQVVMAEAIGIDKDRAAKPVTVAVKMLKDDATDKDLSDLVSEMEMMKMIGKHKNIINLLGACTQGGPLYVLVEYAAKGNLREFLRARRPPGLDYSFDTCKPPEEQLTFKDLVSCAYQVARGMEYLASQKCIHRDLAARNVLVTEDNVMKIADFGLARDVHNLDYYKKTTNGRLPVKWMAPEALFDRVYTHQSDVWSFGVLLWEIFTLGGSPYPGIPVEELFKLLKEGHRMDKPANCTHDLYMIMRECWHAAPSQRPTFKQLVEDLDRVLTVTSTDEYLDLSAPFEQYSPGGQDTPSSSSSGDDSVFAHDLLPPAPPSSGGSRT
T1 sequence (P11362 22-822): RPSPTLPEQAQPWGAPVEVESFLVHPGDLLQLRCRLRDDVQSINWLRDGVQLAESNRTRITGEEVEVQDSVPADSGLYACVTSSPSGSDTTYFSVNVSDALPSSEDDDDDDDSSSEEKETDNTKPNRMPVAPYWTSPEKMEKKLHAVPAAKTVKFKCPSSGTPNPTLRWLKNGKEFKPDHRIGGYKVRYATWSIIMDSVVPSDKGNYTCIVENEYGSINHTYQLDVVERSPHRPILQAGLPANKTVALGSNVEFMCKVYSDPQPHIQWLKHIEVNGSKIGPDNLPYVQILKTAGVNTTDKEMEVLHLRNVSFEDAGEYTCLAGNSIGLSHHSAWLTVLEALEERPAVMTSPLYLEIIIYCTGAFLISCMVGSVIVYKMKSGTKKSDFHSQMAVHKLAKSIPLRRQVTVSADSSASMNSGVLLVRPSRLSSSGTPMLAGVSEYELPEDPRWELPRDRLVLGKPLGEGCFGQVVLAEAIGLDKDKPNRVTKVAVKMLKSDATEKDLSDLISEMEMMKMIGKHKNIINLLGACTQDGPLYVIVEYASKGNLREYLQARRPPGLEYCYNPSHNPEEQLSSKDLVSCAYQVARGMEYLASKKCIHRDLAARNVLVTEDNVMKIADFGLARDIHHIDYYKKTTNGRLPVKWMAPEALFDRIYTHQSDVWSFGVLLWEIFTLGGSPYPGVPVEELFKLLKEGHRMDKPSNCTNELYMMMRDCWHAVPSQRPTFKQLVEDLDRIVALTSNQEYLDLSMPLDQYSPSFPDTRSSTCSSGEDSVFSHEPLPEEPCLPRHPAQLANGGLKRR

One may read the Kd as the free concentration of one partner at which half of the binding sites on the other are occupied at equilibrium, for simple one-to-one binding. Take `COc1cc2[nH]nc(-c3cnc(N4CCC(C)(N)CC4)c(F)c3)c2cc1O[C@H](C)c1c(Cl)cncc1Cl` [Example 383, (R)-1-(5-(5-(1-(3,5-dichloropyridin-4-yl)ethoxy)-6-methoxy-1H-indazol-3-yl)-3-fluoropyridin-2-yl)-4-methylpiperidin-4-amine]: the equilibrium dissociation constant (Kd) in assay [1] (setting [3]) and in assay [2] (setting [3]) was 1 to 50 nM throughout.

As to `C[C@@H](Oc1ccc2[nH]nc(-c3cnc(N4CC[C@](C)(N)C4)c(F)c3)c2c1)c1c(Cl)cncc1Cl` [Example 396, (S)-1-(5-(5-((R)-1-(3,5-dichloropyridin-4-yl)ethoxy)-1H-indazol-3-yl)-3-fluoropyridin-2-yl)-3-methylpyrrolidin-3-amine], the Kd in assay [1] (setting [3]) and in assay [2] (setting [3]) was 1 to 50 nM in each case.

For the compound `CCCC1(N)CN(c2ncc(-c3n[nH]c4ccc(O[C@H](C)c5c(Cl)cncc5Cl)cc34)cc2F)C1` [Example 265, (R)-1-(5-(5-(1-(3,5-dichloropyridin-4-yl)ethoxy)-1H-indazol-3-yl)-3-fluoropyridin-2-yl)-3-propylazetidin-3-amine], the Kd in assay [1] and in assay [2] was 1 to 50 nM each time.

As to `C[C@@H](Oc1ccc2[nH]nc(-c3cnc(N4CC(N)(C5CCOCC5)C4)c(F)c3)c2c1)c1c(Cl)cncc1Cl` [Example 263, (R)-1-(5-(5-(1-(3,5-dichloropyridin-4-yl)ethoxy)-1H-indazol-3-yl)-3-fluoropyridin-2-yl)-3-(tetrahydro-2H-pyran-4-yl)azetidin-3-amine], the Kd in assay [1] and in assay [2] was 1 to 50 nM each time.

Consider `COCC1(N)CN(c2ncc(-c3n[nH]c4ccc(O[C@H](C)c5c(Cl)cncc5Cl)cc34)cc2F)C1` [Example 371, 1-[5-[5-[(1R)-1-(3,5-dichloro-4-pyridyl)ethoxy]-1H-indazol-3-yl]-3-fluoro-2-pyridyl]-3-(methoxy-methyl)aze-tidin-3-amine], for which the equilibrium dissociation constant (Kd) in assay [1] and in assay [2] was 1 to 50 nM in each case.

Consider `C[C@@H](Oc1ccc2[nH]nc(-c3ccc(N4CC[C@@](N)(Cc5ccnn5C)C4)nn3)c2c1)c1c(Cl)cncc1Cl` [Example 425, (R)-1-(6-(5-((R)-1-(3,5-dichloropyridin-4-yl)ethoxy)-1H-indazol-3-yl)pyridazin-3-yl)-3-((1-methyl-1H-pyrazol-5-yl)methyl)pyrrolidin-3-amine], for which the dissociation constant Kd in assay [1] (setting [3]) and in assay [2] (setting [3]) was 1 to 50 nM each time.

Regarding `C[C@@H](Oc1ccc2[nH]nc(-c3ccc(N4CCC(N)(c5ccnn5C)C4)nn3)c2c1)c1c(Cl)cncc1Cl` (stereo in doubt) [Example 416, (R)-1-(6-(5-((R)-1-(3,5-dichloropyridin-4-yl)ethoxy)-1H-indazol-3-yl)pyridazin-3-yl)-3-(1-methyl-1H-pyrazol-5-yl)pyrrolidin-3-amine], the Kd in assay [1] (setting [3]) and in assay [2] (setting [3]) was 1 to 50 nM in each case.

As to `C[C@@H](Oc1ccc2[nH]nc(-c3ccc(N4CC(C)(N)C4)nn3)c2c1)c1c(Cl)cncc1Cl` [Example 286], the dissociation constant Kd in assay [1] and in assay [2] was 1 to 50 nM in each case.

With `COc1cc2[nH]nc(-c3ccc(N4CCC(C)(N)CC4)nc3)c2cc1O[C@H](C)c1c(Cl)cncc1Cl` [Example 382, (R)-1-(5-(5-(1-(3,5-dichloropyridin-4-yl)ethoxy)-6-methoxy-1H-indazol-3-yl)pyridin-2-yl)-4-methylpiperidin-4-amine], the Kd in assay [1] (setting [3]) and in assay [2] (setting [3]) was 1 to 50 nM in each case.

For `CC[C@]1(N)CCN(c2ccc(-c3n[nH]c4ccc(O[C@H](C)c5c(Cl)cncc5Cl)cc34)nn2)C1` [Example 403, (S)-1-(6-(5-((R)-1-(3,5-dichloropyridin-4-yl)ethoxy)-1H-indazol-3-yl)pyridazin-3-yl)-3-ethylpyrrolidin-3-amine], the dissociation constant Kd in assay [1] (setting [3]) and in assay [2] (setting [3]) was 1 to 50 nM in each case.

On to `C[C@@H](Oc1ccc2[nH]nc(-c3ccc(N4CC(N)(CC(C)(C)O)C4)nc3)c2c1)c1c(Cl)cncc1Cl` [Example 278, (R)-1-(3-amino-1-(5-(5-(1-(3,5-dichloropyridin-4-yl)ethoxy)-1H-indazol-3-yl)pyridin-2-yl)azetidin-3-yl)-2-methylpropan-2-ol], for which the Kd in assay [1] and in assay [2] was 1 to 50 nM throughout.

For the compound `C[C@@H](Oc1ccc2[nH]nc(-c3cnc(N4CCC(N)(CCS(C)(=O)=O)CC4)c(F)c3)c2c1)c1c(Cl)cncc1Cl` [Example 395, (R)-1-(5-(5-(1-(3,5-dichloropyridin-4-yl)ethoxy)-1H-indazol-3-yl)-3-fluoropyridin-2-yl)-4-(2-(methylsulfonyl)ethyl) piperidin-4-amine], the Kd in assay [1] (setting [3]) and in assay [2] (setting [3]) was 1 to 50 nM each time.

Consider `CC(C)OC(=O)C1(N)CN(c2ncc(-c3n[nH]c4ccc(O[C@H](C)c5c(Cl)cncc5Cl)cc34)cc2F)C1` [Example 287, (R)-isopropyl 3-amino-1-(5-(5-(1-(3,5-dichloropyridin-4-yl)ethoxy)-1H-indazol-3-yl)-3-fluoropyridin-2-yl)azetidine-3-carboxylate], for which the Kd in assay [1] and in assay [2] was 1 to 50 nM each time.

`C[C@@H](Oc1ccc2[nH]nc(-c3ccc(N4CC(N)(CC(C)(C)O)C4)nn3)c2c1)c1c(Cl)cncc1Cl` [Example 275, (R)-1-(3-amino-1-(6-(5-(1-(3,5-dichloropyridin-4-yl)ethoxy)-1H-indazol-3-yl)pyridazin-3-yl)azetidin-3-yl)-2-methylpropan-2-ol]: the Kd in assay [1] and in assay [2] was 1 to 50 nM each time.

`COc1cc2[nH]nc(-c3cnc(N4CC[C@@](C)(N)C4)c(F)c3)c2cc1O[C@H](C)c1c(Cl)cncc1Cl` [Example 315, (R)-1-(5-(5-((R)-1-(3,5-dichloropyridin-4-yl)ethoxy)-6-methoxy-1H-indazol-3-yl)-3-fluoropyridin-2-yl)-3-methylpyrrolidin-3-amine]: the equilibrium dissociation constant (Kd) in assay [1] and in assay [2] was 1 to 50 nM throughout.

Regarding `C[C@@H](Oc1ccc2[nH]nc(-c3cnc(N4CC[C@@](C)(N)C4)c(F)c3)c2c1)c1c(Cl)cncc1Cl` [Example 400, (R)-1-(5-(5-((R)-1-(3,5-dichloropyridin-4-yl)ethoxy)-1H-indazol-3-yl)-3-fluoropyridin-2-yl)-3-methylpyrrolidin-3-amine], the dissociation constant Kd in assay [1] (setting [3]) and in assay [2] (setting [3]) was 1 to 50 nM in each case.

As for `C[C@@H](Oc1ccc2[nH]nc(-c3cnc(N4CC(N)(CCCO)C4)c(F)c3)c2c1)c1c(Cl)cncc1Cl` [Example 307, (R)-3-(3-amino-1-(5-(5-(1-(3,5-dichloropyridin-4-yl)ethoxy)-1H-indazol-3-yl)-3-fluoropyridin-2-yl)azetidin-3-yl)propan-1-ol], the dissociation constant (Kd) in assay [1] and in assay [2] was 1 to 50 nM throughout.

`C[C@@H](Oc1ccc2[nH]nc(-c3ccc(N4CC(N)(CC(F)F)C4)nn3)c2c1)c1c(Cl)cncc1Cl` [Example 397, (R)-1-(6-(5-(1-(3,5-dichloropyridin-4-yl)ethoxy)-1H-indazol-3-yl)pyridazin-3-yl)-3-(2,2-difluoro-ethyl)azetidin-3-amine]: the Kd in assay [1] (setting [3]) and in assay [2] (setting [3]) was 1 to 50 nM throughout.

As to `CNC(=O)CNC1(C)CN(c2ncc(-c3n[nH]c4ccc(O[C@H](C)c5c(Cl)cncc5Cl)cc34)cc2F)C1` [Example 399, (R)-2-((1-(5-(5-(1-(3,5-dichloropyridin-4-yl)ethoxy)-1H-indazol-3-yl)-3-fluoropyridin-2-yl)-3-methylazetidin-3-yl)amino)-N-methylacetamide], the dissociation constant Kd in assay [1] (setting [3]) and in assay [2] (setting [3]) was 1 to 50 nM each time.
